# Results as given in patent publication EP4603105A1, “PHARMACEUTICAL COMPOSITION CONTAINING CYCLIC COMPOUND HAVING SELECTIVE KRAS INHIBITORY EFFECT AGAINST HRAS AND NRAS” (CHUGAI SEIYAKU KABUSHIKI KAISHA, priority 2022, dated 2024).
# Where two headings read alike, the source gives them in different places. *1 amine or outer side, *2 acyl side, *3 side chain or, on linkers, in order; H or OH if unused. Where a SMILES comes first, the peptide text is derived from it. Bridges are numbered along the chain shown (N, C = ends). [ ]: non-standard residue; d: D form. The star is where a group is joined. hPhe(3-Cl-4-CF3) = N[C@@H](CCc1ccc(C(F)(F)F)c(Cl)c1)C(=O)O; X22 = C=CCCN([C@@H](Cc1ccc(C(F)(F)F)cc1)C(=O)[*:2])[*:1]; X29 = C#CCN([C@@H](Cc1ccc(C(F)(F)F)cc1)C(=O)[*:2])[*:1]; NPrPhe(4-CF3) = CCCN[C@@H](Cc1ccc(C(F)(F)F)cc1)C(=O)O; NMeGly(cPent) = CN[C@H](C(=O)O)C1CCCC1; NMeD = CN[C@@H](CC(=O)O)C(=O)O; NMeL = CN[C@@H](CC(C)C)C(=O)O; Morpholide = C1CN(*)CCO1; NMeA = CN[C@@H](C)C(=O)O; Ac5c = NC1(C(=O)O)CCCC1; Aze = O=C(O)[C@@H]1CCN1; Sar = CNCC(=O)O
# Experiments:
# [1] = molecular target: GDP-bound NRAS wild-type protein (Homo sapiens, UniProt P01111); test: Binding to NRAS by surface plasmon resonance (SPR), KD and KD ratio to KRAS
# Sequence of GDP-bound NRAS wild-type protein (P01111 whole entry): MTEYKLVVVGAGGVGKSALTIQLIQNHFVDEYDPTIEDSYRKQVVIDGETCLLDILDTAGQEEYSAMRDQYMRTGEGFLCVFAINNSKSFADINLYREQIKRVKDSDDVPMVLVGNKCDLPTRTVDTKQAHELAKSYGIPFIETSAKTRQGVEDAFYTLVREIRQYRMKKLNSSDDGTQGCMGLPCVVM
# Summary of the method: (§1)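 Biotinylated GDP-bound RAS was captured at about 100–300 RU. Running buffer: HBS pH 7.4, 10 mM MgCl2, 10 µM GDP, 1 mM DTT, 0.01% Tween 20, 4% DMSO.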
# HRAS wild-type protein = HRAS wild-type protein (Homo sapiens, UniProt P01112); test: Binding to HRAS by surface plasmon resonance (SPR), KD and KD ratio to KRAS
# Sequence of HRAS wild-type protein (P01112 whole entry): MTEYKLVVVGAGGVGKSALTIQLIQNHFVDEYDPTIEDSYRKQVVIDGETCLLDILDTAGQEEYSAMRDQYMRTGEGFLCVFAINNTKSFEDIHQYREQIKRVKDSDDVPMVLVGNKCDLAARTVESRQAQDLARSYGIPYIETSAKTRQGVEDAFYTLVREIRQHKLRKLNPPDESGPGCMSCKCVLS
# Summary of the method: as §1
# [2] = test system: human lung cancer strain NCI-H441; assay type: cell-based
# Summary of the method: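 Step one: dispense the test compound in serial DMSO dilutions. Step three: add the reagent and measure […].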
# [3] = ratio of KD value for GDP-bound NRAS wild-type protein to KD value for KRAS (SPR)
# [4] = ratio of KD value for HRAS wild-type protein to KD value for KRAS (SPR)
# [5] = ratio of KD for GDP-bound NRAS wild-type protein to KD for KRAS
# [6] = ratio of KD for HRAS wild-type protein to KD for KRAS
# [7] = ratio of the KD value with respect to GDP-bound NRAS wild-type protein to the KD value with respect to KRAS
# [8] = ratio of the KD value with respect to HRAS wild-type protein to the KD value with respect to KRAS
# [9] = NCI-H441 cells, 4 days, CellTiter-Glo, read-out: NCl-H441 IC50
smiles,measurement,setting,value
CCO[C@@H]1C[C@H]2C(=O)NC3(CCC3)C(=O)N(C)[C@@H](C3CCCC3)C(=O)N(C)[C@H](C)CC(=O)N(C)[C@@H](CC3CC3)C(=O)N[C@@H]([C@@H](C)CC)C(=O)N(C)CC(=O)N(C)[C@H]3C/C=C\CCN(C3=O)[C@@H](Cc3ccc(F)cc3)C(=O)N(C)CC(=O)N[C@@H](CCc3cc(F)c(C(F)(F)F)c(F)c3)C(=O)N2C1 [PP1490],NRAS /KRAS,[1]; [3],B (a compound having 3 or more and less than 10 is denoted as B)
same,HRAS /KRAS,HRAS wild-type protein; [4],B (a compound having 3 or more and less than 10 is denoted as B)
same,IC50,[2],0.0489 µM
C=CCCN1C(=O)[C@@H]2CCN2C(=O)[C@H](C)N(C)C(=O)[C@H]([C@@H](C)CC)NC(=O)[C@H](CC(C)C)N(C)C(=O)C[C@@H](C(=O)N2CCOCC2)N(C)C(=O)[C@H](C2CCCC2)N(C)C(=O)C2(CCCC2)NC(=O)[C@@H]2CCCN2C(=O)[C@H](CCc2ccc(C(F)(F)F)c(Cl)c2)NC(=O)CN(C)C(=O)[C@@H]1Cc1ccc(C(F)(F)F)cc1 [PP0115] ([NMeL]I[NMeA][Aze][X22][Sar][hPhe(3-Cl-4-CF3)]P[Ac5c][NMeGly(cPent)][NMeD]-Morpholide; lactam N-11),NRAS /KRAS,[1]; [5],C (A compound having a KD ratio of 0.1 or more and less than 3 is denoted as C)
same,HRAS /KRAS,HRAS wild-type protein; [6],C (A compound having a KD ratio of 0.1 or more and less than 3 is denoted as C)
same,IC50,[2],0.002 µM
C#CCN1C(=O)[C@@H]2CCN2C(=O)[C@H](C)N(C)C(=O)[C@H]([C@@H](C)CC)NC(=O)[C@H](CC(C)C)N(C)C(=O)C[C@@H](C(=O)N2CCOCC2)N(C)C(=O)[C@H](C2CCCC2)N(C)C(=O)C2(CCCC2)NC(=O)[C@@H]2CCCN2C(=O)[C@H](CCc2ccc(C(F)(F)F)c(Cl)c2)NC(=O)CN(C)C(=O)[C@@H]1Cc1ccc(C(F)(F)F)cc1 [PP0116] ([NMeL]I[NMeA][Aze][X29][Sar][hPhe(3-Cl-4-CF3)]P[Ac5c][NMeGly(cPent)][NMeD]-Morpholide; lactam N-11),NRAS /KRAS,[1]; [5],C (A compound having a KD ratio of 0.1 or more and less than 3 is denoted as C)
same,HRAS /KRAS,HRAS wild-type protein; [6],C (A compound having a KD ratio of 0.1 or more and less than 3 is denoted as C)
same,IC50,[2],0.0068 µM
CCO[C@@H]1C[C@H]2C(=O)NC3(CC(F)(F)C3)C(=O)N(C)[C@@H](C3CCCC3)C(=O)N(C)[C@H](CC)CC(=O)N(C)[C@@H](CC3CC3)C(=O)N[C@@H]([C@@H](C)CC)C(=O)N(C)CC(=O)N(C)[C@H]3C/C=C\CCN(C3=O)[C@@H](Cc3ccc(C(F)(F)F)cc3)C(=O)N(C)CC(=O)N[C@@H](CCc3cc(F)c(C(F)(F)F)c(F)c3)C(=O)N2C1 [PP1633],NRAS /KRAS,[1]; [3],A (a compound having 10 or more and less than 20 is denoted as A)
same,HRAS /KRAS,HRAS wild-type protein; [4],B (a compound having 3 or more and less than 10 is denoted as B)
same,IC50,[2],0.0151 µM
CCCN1C(=O)CN(C)C(=O)CNC(=O)[C@H]([C@@H](C)CC)NC(=O)[C@H](CC(C)C)N(C)C(=O)C[C@@H](C(=O)N(C)C)NC(=O)[C@H](C2CCCC2)N(C)C(=O)C2(CCCC2)NC(=O)[C@@H]2CCCN2C(=O)[C@H](CCc2ccc(C(F)(F)F)c(Cl)c2)NC(=O)CN(C)C(=O)[C@@H]1Cc1ccc(C(F)(F)F)cc1 [PP0361] ([NMeL]IG[Sar][NPrPhe(4-CF3)][Sar][hPhe(3-Cl-4-CF3)]P[Ac5c][NMeGly(cPent)]D-NMe2; lactam N-11),NRAS /KRAS,[1]; [5],B (a compound having 3 or more and less than 10 is denoted as B)
same,HRAS /KRAS,HRAS wild-type protein; [6],C (A compound having a KD ratio of 0.1 or more and less than 3 is denoted as C)
same,IC50,[2],0.069 µM
CCO[C@@H]1C[C@H]2C(=O)NC3(CC(C)(C)C3)C(=O)N(C)[C@@H](C3CCCC3)C(=O)N3CCC[C@@H]3CC(=O)N(C)[C@@H](CC3CC3)C(=O)N[C@@H]([C@@H](C)CC)C(=O)N(C)CC(=O)N(C)[C@H]3C/C=C\CCN(C3=O)[C@@H](Cc3ccc(C(F)(F)F)cc3)C(=O)N(C)CC(=O)N[C@@H](CCc3cc(F)c(C(F)(F)F)c(F)c3)C(=O)N2C1 [PP1611],NRAS /KRAS,[1]; [3],B (a compound having 3 or more and less than 10 is denoted as B)
same,HRAS /KRAS,HRAS wild-type protein; [4],B (a compound having 3 or more and less than 10 is denoted as B)
same,IC50,[2],0.028 µM
CC[C@H](C)[C@@H]1NC(=O)[C@H](CC(C)C)N(C)C(=O)C[C@@H](C(=O)N2CCOCC2)N(C)C(=O)[C@H](C2CCCC2)N(C)C(=O)C2(CCCC2)NC(=O)[C@@H]2CCCN2C(=O)[C@H](CCc2ccc(C(F)(F)F)c(Cl)c2)NC(=O)CN(C)C(=O)[C@H](Cc2ccc(C)cc2)N2CC/C=C\C[C@@H](C2=O)N(C)C(=O)CN(C)C1=O [PP0461],NRAS /KRAS,[1]; [7],A (a compound having 10 or more and less than 20 is denoted as A)
same,HRAS /KRAS,HRAS wild-type protein; [8],A (a compound having 10 or more and less than 20 is denoted as A)
same,IC50,[2],0.0232 µM
C=CCCC[C@H]1C(=O)N[C@@H]([C@@H](C)CC)C(=O)N(C)CC(=O)N(C)[C@H]2CCCCN(C2=O)[C@@H](Cc2ccc(C(F)(F)F)cc2)C(=O)N(C)CC(=O)N[C@@H](CCc2cc(F)c(C(F)(F)F)c(F)c2)C(=O)N2C[C@H](OCC)C[C@H]2C(=O)N[C@](C)(CC=C)C(=O)N(C)[C@@H](C2CCCC2)C(=O)N(C)[C@H](C(=O)N2CCOCC2)CC(=O)N1C [PP0876],NRAS /KRAS,[1]; [5],C (A compound having a KD ratio of 0.1 or more and less than 3 is denoted as C)
same,HRAS /KRAS,HRAS wild-type protein; [6],C (A compound having a KD ratio of 0.1 or more and less than 3 is denoted as C)
same,IC50,[2],0.0071 µM
CCO[C@@H]1C[C@H]2C(=O)NC3(CCC3)C(=O)N(C)[C@@H](C3CCCC3)C(=O)N(C)[C@H](C(=O)N(C)CCOC)CC(=O)N(C)[C@@H](CC(F)F)C(=O)N[C@@H]([C@@H](C)CC)C(=O)N(C)CC(=O)N(C)[C@H]3C/C=C\CCN(C3=O)[C@@H](Cc3ccc(C(F)(F)F)cc3)C(=O)N(C)CC(=O)N[C@@H](CCc3cc(F)c(C(F)(F)F)c(F)c3)C(=O)N2C1 [PP1320],NRAS /KRAS,[1]; ratio of KD with respect to GDP-bound NRAS wild-type protein to KD with respect to KRAS,A (a compound having 10 or more and less than 20 is denoted as A)
same,HRAS /KRAS,HRAS wild-type protein; ratio of KD with respect to HRAS wild-type protein to KD with respect to KRAS,A (a compound having 10 or more and less than 20 is denoted as A)
same,IC50,[2],0.0077 µM
CCC[C@H]1C(=O)N[C@@H]([C@@H](C)CC)C(=O)N(C)CC(=O)N(C)[C@H]2C/C=C\CCN(C2=O)[C@@H](Cc2ccc(C)cc2)C(=O)N(C)CC(=O)N[C@@H](CCc2ccc(C(F)(F)F)c(Cl)c2)C(=O)N2C[C@H](OCC)C[C@H]2C(=O)NC2(CC(C)(C)C2)C(=O)N(C)[C@@H](CC(F)(F)F)C(=O)N(C)[C@H](C(=O)N(C)C)CC(=O)N1C [PP2226],NRAS /KRAS,[1]; [7],A (a compound having 10 or more and less than 20 is denoted as A)
same,HRAS /KRAS,HRAS wild-type protein; [8],A (a compound having 10 or more and less than 20 is denoted as A)
same,IC50,[2],0.0147 µM
CCO[C@@H]1C[C@H]2C(=O)NC3(CC(C)(C)C3)C(=O)N(C)[C@@H](C3CCCC3)C(=O)N(C)[C@H](C(=O)N(C)C)CC(=O)N(C)[C@@H](CC3CC3)C(=O)N[C@@H]([C@@H](C)CC)C(=O)N(C)CC(=O)N(C)[C@H]3C/C=C\CCN(C3=O)[C@@H](Cc3ccc(C(F)(F)F)cc3)C(=O)N(C)CC(=O)N[C@@H](CCc3ccc(C(F)(F)F)c(Cl)c3)C(=O)N2C1 [PP1749],NRAS /KRAS,[1]; [3],A (a compound having 10 or more and less than 20 is denoted as A)
same,HRAS /KRAS,HRAS wild-type protein; [4],A (a compound having 10 or more and less than 20 is denoted as A)
same,IC50,[2],0.0033 µM
CCC[C@H]1C(=O)N[C@@H]([C@@H](C)CC)C(=O)N(C)CC(=O)N(C)[C@H]2C/C=C\CCN(C2=O)[C@@H](Cc2ccc(C(F)(F)F)cc2)C(=O)N(C)CC(=O)N[C@@H](CCc2cc(C)c(C3CC3)c(C)c2)C(=O)N2C[C@H](OCC)C[C@H]2C(=O)NC2(CC(C)(C)C2)C(=O)N(C)[C@@H](C2CCCC2)C(=O)N(C)[C@H](C(=O)N(C)C)CC(=O)N1C [PP2863],NRAS /KRAS,[1]; [5],A (a compound having 10 or more and less than 20 is denoted as A)
same,HRAS /KRAS,HRAS wild-type protein; [6],A (a compound having 10 or more and less than 20 is denoted as A)
same,IC50,[2]; [9],0.128 µM
CC[C@H](C)[C@@H]1NC(=O)[C@H](COC)N(C)C(=O)C[C@@H](C(=O)N2CCOCC2)N(C)C(=O)[C@H](C2CCCC2)N(C)C(=O)C2(CCC2)NC(=O)[C@@H]2CC(F)(F)CN2C(=O)[C@H](CCc2cc(F)c(C(F)(F)F)c(F)c2)NC(=O)CN(C)C(=O)[C@H](Cc2ccc(C(F)(F)F)cc2)N2CCCCC[C@@H](C2=O)N(C)C(=O)[C@@H]2CCN2C1=O [PP0866],NRAS /KRAS,[1]; [5],B (a compound having 3 or more and less than 10 is denoted as B)
same,HRAS /KRAS,HRAS wild-type protein; [6],B (a compound having 3 or more and less than 10 is denoted as B)
same,IC50,[2],0.197 µM
CCC[C@H]1C(=O)N[C@@H]([C@@H](C)CC)C(=O)N(C)CC(=O)N(C)[C@H]2C/C=C\CCN(C2=O)[C@@H](Cc2ccc(C(F)(F)F)cc2)C(=O)N(C)CC(=O)N[C@@H](CCc2cc(F)c(CC)c(OC)c2)C(=O)N2C[C@H](OCC)C[C@H]2C(=O)NC2(CC(C)(C)C2)C(=O)N(C)[C@@H](C2CCCC2)C(=O)N(C)[C@H](C(=O)N(C)C)CC(=O)N1C [PP2862],NRAS /KRAS,[1]; [5],A (a compound having 10 or more and less than 20 is denoted as A)
same,HRAS /KRAS,HRAS wild-type protein; [6],B (a compound having 3 or more and less than 10 is denoted as B)
same,IC50,[2]; [9],0.0363 µM
